Results reported in US10189803B2, “Synthesis of therapeutic and diagnostic drugs centered on regioselective and stereoselective ring opening of aziridinium ions” (ILLINOIS INSTITUTE OF TECHNOLOGY, priority 2008, dated 2019).

Experiments:
[1] = In vitro serum stability of radiolabeled C-NE3TA complexes in human serum (SE-HPLC); assay type: in vitro ADME; details: 37° C., up to 11 days
Procedure: C-NE3TA was radiolabeled with ^90Y, ^177Lu, ^203Pb, ^205/6Bi, or ^153Gd as previously described (Chong, H. S.; Milenic, D. E.; Garmestani, K.; Brady, E. D.; Arora, H.; Pfiester, C.; Brechbiel, M. W., Nucl. Med. Biol. 2006, 33, 459-67; Chong H S, Garmestani K, Bryant Jr., L H Milenic D E, Overstreet T, Birch N, Le N, Brady E D, Brechbiel M W. J. Med. Chem. 2006, 49, 2055-2062). In vitro serum stability of the radiolabeled complexes purified via ion-exchange chromatography was performed to determine if C-NE3TA labeled with the radioisotopes remained stable without transchelation or loss of their respective radionuclide in human serum. This was assessed by measuring the transfer of radionuclide from the complex to serum proteins over the course of 11 days.
In vitro stability of the radiolabeled metal complexes. The stability of the purified radiolabeled complexes was evaluated in human serum (Gemini Bioproducts, Woodland, Calif.) for up to 11 days. The serum stability of the radiolabeled complexes was assessed by measuring the transfer of the radionuclide from each complex to serum proteins using SE-HPLC methods. Radiolabeled complexes were diluted to an appropriate volume that allowed for preparation of multiple samples containing 5-10 μCi and were filter-sterilized using a Millex-GV 0.22 μm filter. This stock solution was then mixed with 1400 μL of sterile normal human serum. Aliquots (200 μL) were drawn and separated into individual tubes for subsequent analysis using aseptic technique. The samples were incubated at 37° C., and at designated intervals, subjected to analysis by SE-HPLC. Samples were loaded onto the HPLC and eluted with PBS, pH 7.4 isocratically at 1 mL/min. […] Radioactivity associated with a transfer to serum proteins generally appeared at ˜6 min.

[2] = In vivo biodistribution of radiolabeled complexes in normal athymic mice; details: for percent injected dose per gram, Blood / percent injected dose per gram, Femur / percent injected dose per gram, Heart / percent injected dose per gram, Kidney / percent injected dose per gram, Liver / percent injected dose per gram, Lung / percent injected dose per gram, Spleen: non-tumor bearing mice, ± SD
Procedure: The in vivo stability of the radiolabeled complexes was evaluated by performing biodistribution studies in normal athymic mice. Selected organs and the blood were harvested at five time points, 0.5, 1, 4, 8, and 24 h post-injection and the radioactivity measured. […] C-NE3TA radiolabeled with ^153Gd was almost completely cleared from blood, liver, spleen, lung, heart, and femur in less than 4 hours, and radioactivity level in the kidney was 0.16%±0.11 ID/g at 24 hour post-injection (Table 9).
In vivo biodistribution studies oh the radiolabeled metal complexes. Female athymic mice were obtained from Charles River Laboratories (Wilmington, Mass.) at 4-6 weeks of age. The pH of the radiolabeled ligands was adjusted to pH ˜7.0 with 0.5 M sodium bicarbonate (pH 10.5) and diluted in phosphate-buffered saline. The radiolabeled ligands ([…] for ^86Y, ^205/6Bi, ^177Lu, and ^203Pb) were administered to the mice in 200 μL of solution via tail vein injection. The mice (5 per data point) were sacrificed by exsanguination at 0.5, 1, 4, 8, and 24 h. Blood and the major organs were harvested, wet-weighed and the radioactivity measured in a γ-scintillation counter (1480 Wizard, Perkin Elmer). The percent injected dose per gram (% ID/g) was determined for each tissue. The values presented are the mean and standard deviation for each tissue.

Row | SMILES | stability in human serum (in words) [1] | percent injected dose per gram, Blood ([2]; 0.50 hr) [% ID/g] | percent injected dose per gram, Femur ([2]; 0.50 hr) [% ID/g] | percent injected dose per gram, Heart ([2]; 0.50 hr) [% ID/g] | percent injected dose per gram, Kidney ([2]; 0.50 hr) [% ID/g] | percent injected dose per gram, Liver ([2]; 0.50 hr) [% ID/g] | percent injected dose per gram, Lung ([2]; 0.50 hr) [% ID/g] | percent injected dose per gram, Spleen ([2]; 0.50 hr) [% ID/g] | percent injected dose per gram, Blood ([2]; 1.00 hr) [% ID/g] | percent injected dose per gram, Femur ([2]; 1.00 hr) [% ID/g] | percent injected dose per gram, Heart ([2]; 1.00 hr) [% ID/g] | percent injected dose per gram, Kidney ([2]; 1.00 hr) [% ID/g] | percent injected dose per gram, Liver ([2]; 1.00 hr) [% ID/g] | percent injected dose per gram, Lung ([2]; 1.00 hr) [% ID/g] | percent injected dose per gram, Spleen ([2]; 1.00 hr) [% ID/g] | percent injected dose per gram, Blood ([2]; 4.00 hr) [% ID/g] | percent injected dose per gram, Femur ([2]; 4.00 hr) [% ID/g] | percent injected dose per gram, Heart ([2]; 4.00 hr) [% ID/g] | percent injected dose per gram, Kidney ([2]; 4.00 hr) [% ID/g] | percent injected dose per gram, Liver ([2]; 4.00 hr) [% ID/g] | further results
1 | O=C(O)CNC(Cc1ccc([N+](=O)[O-])cc1)CN1CCN(CC(=O)O)CCN(CC(=O)O)CC1.[177Lu] (stereo not drawn) [^177Lu-C-NE3TA] | no measurable loss of radioactivity | 0.93 ± 0.30 | 1.06 ± 1.35 | 0.37 ± 0.08 | 2.78 ± 0.99 | 0.82 ± 0.27 | 0.87 ± 0.22 | 0.33 ± 0.08 | 0.31 ± 0.04 | 0.39 ± 0.13 | 0.19 ± 0.09 | 1.57 ± 0.52 | 0.69 ± 0.20 | 0.42 ± 0.16 | 0.28 ± 0.20 | 0.12 ± 0.02 | 0.36 ± 0.11 | 0.08 ± 0.02 | 1.34 ± 0.09 | 0.50 ± 0.02 | percent injected dose per gram, Lung ([2]; 4.00 hr): 0.17 ± 0.03 % ID/g; percent injected dose per gram, Spleen ([2]; 4.00 hr): 0.19 ± 0.07 % ID/g; percent injected dose per gram, Blood ([2]; 8.00 hr): 0.06 ± 0.01 % ID/g; percent injected dose per gram, Femur ([2]; 8.00 hr): 0.28 ± 0.15 % ID/g; percent injected dose per gram, Heart ([2]; 8.00 hr): 0.10 ± 0.11 % ID/g; percent injected dose per gram, Kidney ([2]; 8.00 hr): 1.16 ± 0.19 % ID/g; percent injected dose per gram, Liver ([2]; 8.00 hr): 0.36 ± 0.05 % ID/g; percent injected dose per gram, Lung ([2]; 8.00 hr): 0.15 ± 0.03 % ID/g; percent injected dose per gram, Spleen ([2]; 8.00 hr): 0.13 ± 0.02 % ID/g; percent injected dose per gram, Blood ([2]; 24.00 hr): 0.01 ± 0.00 % ID/g; percent injected dose per gram, Femur ([2]; 24.00 hr): 0.38 ± 0.10 % ID/g; percent injected dose per gram, Heart ([2]; 24.00 hr): 0.02 ± 0.01 % ID/g; percent injected dose per gram, Kidney ([2]; 24.00 hr): 0.84 ± 0.08 % ID/g; percent injected dose per gram, Liver ([2]; 24.00 hr): 0.31 ± 0.04 % ID/g; percent injected dose per gram, Lung ([2]; 24.00 hr): 0.07 ± 0.03 % ID/g; percent injected dose per gram, Spleen ([2]; 24.00 hr): 0.12 ± 0.05 % ID/g
2 | O=C([O-])CNC(Cc1ccc([N+](=O)[O-])cc1)CN1CCN(CC(=O)[O-])CCN(CC(=O)[O-])CC1.[Bi+3] (stereo not drawn) [^205/6Bi-C-NE3TA] | no measurable loss of radioactivity | 0.46 ± 0.18 | 0.62 ± 0.27 | 0.36 ± 0.09 | 5.05±0.24 | 1.01 ± 0.15 | 0.56 ± 0.13 | 0.45 ± 0.24 | 0.13 ± 0.02 | 0.26 ± 0.05 | 0.19 ± 0.02 | 4.69 ± 0.55 | 0.80 ± 0.16 | 0.25 ± 0.03 | 0.25 ± 0.02 | 0.03 ± 0.00 | 0.23 ± 0.06 | 0.12 ± 0.01 | 3.42 ± 0.55 | 0.52 ± 0.13 | percent injected dose per gram, Kidney ([2]; 0.50 hr, listed as 205/6BiC-NE3TA): 5.05 ± 0.24 % ID/g; percent injected dose per gram, Lung ([2]; 4.00 hr): 0.16 ± 0.01 % ID/g; percent injected dose per gram, Spleen ([2]; 4.00 hr): 0.18 ± 0.01 % ID/g; percent injected dose per gram, Blood ([2]; 8.00 hr): 0.02 ± 0.01 % ID/g; percent injected dose per gram, Femur ([2]; 8.00 hr): 0.14 ± 0.02 % ID/g; percent injected dose per gram, Heart ([2]; 8.00 hr): 0.09 ± 0.01 % ID/g; percent injected dose per gram, Kidney ([2]; 8.00 hr): 1.99 ± 0.32 % ID/g; percent injected dose per gram, Liver ([2]; 8.00 hr): 0.37 ± 0.08 % ID/g; percent injected dose per gram, Lung ([2]; 8.00 hr): 0.13 ± 0.04 % ID/g; percent injected dose per gram, Spleen ([2]; 8.00 hr): 0.12 ± 0.02 % ID/g; percent injected dose per gram, Blood ([2]; 24.00 hr): 0.01 ± 0.00 % ID/g; percent injected dose per gram, Femur ([2]; 24.00 hr): 0.13 ± 0.01 % ID/g; percent injected dose per gram, Heart ([2]; 24.00 hr): 0.08 ± 0.02 % ID/g; percent injected dose per gram, Kidney ([2]; 24.00 hr): 0.73±0.19 % ID/g; percent injected dose per gram, Liver ([2]; 24.00 hr): 0.14 ± 0.03 % ID/g; percent injected dose per gram, Lung ([2]; 24.00 hr): 0.09 ± 0.01 % ID/g; percent injected dose per gram, Spleen ([2]; 24.00 hr): 0.13 ± 0.01 % ID/g; percent injected dose per gram, Kidney ([2]; 24.00 hr, listed as 205/6BiC-NE3TA): 0.73 ± 0.19 % ID/g; blood and organ clearance (in words) ([2]; normal athymic mice): rapidly cleared from the blood, lung, heart, and femur
